In patent US10544130B2, “Metallo-beta-lactamase inhibitors” (priority 2015, dated 2020):

Tested on: Pseudomonas aeruginosa PAO1 MB9798 (efflux+, IMP-1)
Conditions: ratio MITC95 PA 9798/MITC95 PA 9799; imipenem at 2 μg/mL
Method in brief: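 Isogenic PAO1 pair (efflux+ MB9798, efflux− MB9799, both IMP-1) tested by microbroth MIC with fixed imipenem and/or ceftazidime, usually at CLSI breakpoint, plus fixed class A/C inhibitor against AmpC. MBL inhibitor titrated; concentration restoring susceptibility recorded and fold difference between strains taken as efflux extent.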

Row | SMILES | Efflux ratio
1 | NC(=O)[C@@H](N)CNS(=O)(=O)c1ccc(-c2cccc3[nH]c(N)nc23)c(-c2nn[nH]n2)c1S(N)(=O)=O [Example 189, (2S)-2-amino-3-(4-(2-amino-1H-benzo[d]imidazol-4-yl)-2-sulfamoyl-3-(2H-tetrazol-5-yl)phenylsulfonamido)propanamide] | 0.50
2 | Nc1nc2c(-c3ccc(S(=O)(=O)NC[C@@H](N)CO)c(S(N)(=O)=O)c3-c3nn[nH]n3)cccc2[nH]1 [Example 190, 4-(2-amino-1H-benzo[d]imidazol-4-yl)-N1-((R)-2-amino-3-hydroxypropyl)-3-(2H-tetrazol-5-yl)benzene-1,2-disulfonamide] | 0.50
3 | Nc1nc2c(-c3ccc(S(=O)(=O)NC[C@H](N)CO)c(S(N)(=O)=O)c3-c3nn[nH]n3)cccc2[nH]1 [Example 191, 4-(2-amino-1H-benzo[d]imidazol-4-yl)-N^1—((S)-2-amino-3-hydroxypropyl)-3-(2H-tetrazol-5-yl)benzene-1,2-disulfonamide] | 1.00
4 | NS(=O)(=O)c1c(S(=O)(=O)N[C@@H]2CCNC2)ccc(-c2cccc3[nH]cnc23)c1-c1nn[nH]n1 [Example 193, 4-(1H-benzo[d]imidazol-4-yl)-N1-((R)-pyrrolidin-3-yl)-3-(2H-tetrazol-5-yl)benzene-1,2-disulfonamide] | 1.00
5 | Nc1ccc(-c2ccc(S(=O)(=O)N[C@@H]3CCNC3)c(S(N)(=O)=O)c2-c2nn[nH]n2)cn1 [Example 194, (R)-4-(6-aminopyridin-3-yl)-N^1-(pyrrolidin-3-yl)-3-(2H-tetrazol-5-yl)benzene-1,2-disulfonamide] | 0.80
6 | Nc1ccc(-c2ccc(S(=O)(=O)N[C@H]3CCNC3)c(S(N)(=O)=O)c2-c2nn[nH]n2)cn1 [Example 195, (S)-4-(6-aminopyridin-3-yl)-N^1-(pyrrolidin-3-yl)-3-(2H-tetrazol-5-yl)benzene-1,2-disulfonamide] | 1.00
7 | NCCNS(=O)(=O)c1ccc(-c2ccc(N)nc2)c(-c2nn[nH]n2)c1S(N)(=O)=O [Example 196, N^1-(2-aminoethyl)-4-(6-aminopyridin-3-yl)-3-(2H-tetrazol-5-yl)benzene-1,2-disulfonamide] | 1.00
8 | NS(=O)(=O)c1c(S(=O)(=O)N[C@H]2CCNC2)ccc(-c2cccc3[nH]cnc23)c1-c1nn[nH]n1 [Example 197, 4-(1H-benzo[d]imidazol-4-yl)-N^1—((S)-pyrrolidin-3-yl)-3-(2H-tetrazol-5-yl)benzene-1,2-disulfonamide] | 1.00
9 | NCCCNS(=O)(=O)c1ccc(-c2cccc3[nH]cnc23)c(-c2nn[nH]n2)c1S(N)(=O)=O [Example 198, N^1-(3-aminopropyl)-4-(1H-benzo[d]imidazol-4-yl)-3-(2H-tetrazol-5-yl)benzene-1,2-disulfonamide] | 1.00
10 | NCCNS(=O)(=O)c1ccc(-c2cccc3[nH]cnc23)c(-c2nn[nH]n2)c1S(N)(=O)=O [Example 199, N^1-(2-aminoethyl)-4-(1H-benzo[d]imidazol-4-yl)-3-(2H-tetrazol-5-yl)benzene-1,2-disulfonamide] | 0.55
11 | NS(=O)(=O)c1c(S(=O)(=O)N[C@H]2C[C@H](N)C2)ccc(-c2cccc3[nH]cnc23)c1-c1nn[nH]n1 [Example 200, N^1-((1r,3r)-3-aminocyclobutyl)-4-(1H-benzo[d]imidazol-4-yl)-3-(2H-tetrazol-5-yl)benzene-1,2-disulfonamide] | 1.00
12 | NC[C@@H](CO)NS(=O)(=O)c1ccc(-c2cccc3sc(N)nc23)c(-c2nnn[nH]2)c1S(N)(=O)=O [Example 201, (S)—N^1-(1-amino-3-hydroxypropan-2-yl)-4-(2-aminobenzo[d]thiazol-4-yl)-3-(1H-tetrazol-5-yl)benzene-1,2-disulfonamide] | 0.50
13 | NC[C@H](CO)NS(=O)(=O)c1ccc(-c2cccc3sc(N)nc23)c(-c2nnn[nH]2)c1S(N)(=O)=O [Example 202, (R)—N^1-(1-amino-3-hydroxypropan-2-yl)-4-(2-aminobenzo[d]thiazol-4-yl)-3-(1H-tetrazol-5-yl)benzene-1,2-disulfonamide] | 1.00
